“And” between values parts separate entries of the source, which are not always exact repeats. Equal values may be shown once. Read-outs that look alike come from different tables or passages of the source.
What was measured:
Format in all cases: cell-based
[1] = tested on: PATU‐T GR; assay: SRB chemosensitivity assay, gemcitabine resistant PATU‐T GR cells
Procedure: (§1) Three lines of immortalized PDAC cells were selected as representative phenotypes: mesenchymal (PATU‐T), quasimesenchymal (PANC‐1), and an epithelial clone of SUIT 2 cells (SUIT 2.28). Cells were cultured in noncoated T‐75 and T‐25 flasks under adherent conditions, using 1× DMEM (Gibco, 41,966,029) for PATU‐T and RPMI (Gibco, 21,875,034) for SUIT 2.28 and PANC‐1, both supplemented with 10% NBCS and 1% P/S. Additional employed models were the PDAC3 cells, a primary cell culture, the PSCs, which were immortalized healthy pancreatic cells, and the PATU‐T‐GR, which was a gemcitabine resistant model of PATU‐T. PDAC3 and PSCs were cultivated using complete RPMI medium, while PATU‐T‐GR required complete DMEM medium. For seeding, cells were detached with Trypsin‐EDTA (0.05%) (GibcoTM, 25,300–096) and were consequently counted using the Automated Cell Counter (Luna‐II, Westburg). Cells were then plated on 96‐ or 6‐well plates depending on the planned experiment.
(§2) The Sulforhodamine B (SRB) chemosensitivity assay was used to measure cytotoxicity and cell proliferation post drug treatment. At day 0, 3–6 × 10^3 cells were seeded in a 96‐well plate, depending on the cell line. At day 1, cells were attached and ready to be treated. For the calculation of the IC50, drug dilutions for the compounds 1b, 1c, 1d, 1e, 1g, 1hr, 1i, 1j, and LDC4297 (MedChemExpress, HY‐12,653) were prepared in dilution trays and eight different concentrations were included. These were added in triplicates to the cells, which were then incubated for […] at 37 °C in 5% CO2. During day 1, the control plate was fixed with 50% Trichloroacetic acid (TCA), as intended to be the baseline plate used for the normalization of the data. 72 h post‐treatment, the cells were fixed with TCA, and placed at 4 °C for about 2 h. The plates were then washed with distillated water and left to dry under the hood with ventilation. Subsequently, plates were stained with 0.4% SRB for 15 min and washed with 1% acetic acid to remove excess stain. Once dried again, the protein‐bound SRB was dissolved in 10 mM TRIS, and the plates were placed on a shaker for 10 min per plate. Lastly, the absorbance was measured at 492 nm with a spectrophotometer (Synergy HT, BioTek). The absorbance data obtained were normalized to the day 1 control, and the percentage of cell growth in relation to the control was calculated using the following formula. (1) %Cell growth=Mean OD treatment−Mean OD day0/Mean OD control−Mean OD day0×100
The percentage of proliferation and their respective standard deviations were used to perform statistical analysis in GraphPad Prism software v 10 (GraphPad Software, San Diego, CA). Data were normalized to the day 0 control and to their own untreated 72 h control. […]

[2] = tested on: SUIT 2.28; assay: Wound healing assay, SUIT 2.28
Procedure: The wound healing assay was used to test the migratory ability of the selected cells post‐treatment. Cells (5 × 10^4 /well) were seeded on 96‐well. After 24 h, cells reached the optimal 100% confluency, and an artificial wound was created with a 96‐well Pintool Scratcher. The cells were immediately washed with complete medium, in order to remove cell debris after the scratch, and images of the wells were captured at time 0 h, right before the addition of the treatment. Each drug (1b and 1g) was previously diluted in the respective medium at two different concentrations: 1 × IC50 and 4 × IC50 (according to the cell specific IC50 value) and were then added to the cells. Images were then taken at timepoints 4, 8, 20, and 24 h using the Leica microscope with a JAI TMC‐137 camera to assess wound closure. The images were analyzed using the Universal Grab 6.3 software (DCILabs), and the obtained data were used to determine the percentage of migration of the cells, using the following formula. (2) % Migration=Mean width of the wound atT=0−Mean width of the wound atT=X/Mean width of the wound atT=0×100

[3] = tested on: SUIT 2.28; assay: Annexin V apoptosis assay, SUIT 2.28; conditions: 1× and 4 × IC50
Procedure: In order to investigate the apoptotic properties of the compounds 1b and 1g, the Annexin V apoptosis assay was performed. Annexins are calcium‐dependent phospholipid binding proteins, which are able to bind to phosphatidylserine (PS). The externalization of PS residues on the outer membrane of apoptotic cells can be detected by Annexin V.
For this assay, cells were seeded in a 96‐well plate at a concentration of 13.5 × 10^3 and 4.5 × 10^3 /well respectively for the 24 and 72 h experiments. The next day cells were treated with compounds 1b and 1g at 1 × IC50 and 4 × IC50 concentrations. The apoptosis assay was performed 24 and 72 h post‐treatment following the BD Pharmingen FITC Annexin V Apoptosis Detection Kit I (BD Biosciences, 556,547). The supernatant was aspirated, and cells were washed with phosphate‐buffered saline (PBS). Cells were consequently treated with binding buffer BBA + Annexin V (1:100) and were incubated in the dark at RT for 10 min. The supernatant was removed, and the cells were washed with BBA (1:10). Cells were then incubated with BBA + PI (1:100) and were immediately read with the spectrophotometer at ex. 485/ em. 535. Two different programs were used to read the Annexin V and the PI absorbance. Lastly, 100 µL of PBS were added to each well before being fixed with TCA. This was followed by the SRB assay to standardize fluorescence data according to cell count. Data were exported into GraphPad Prism 10 for statistical analysis.

[4] = tested on: SUIT 2.28; assay: SRB chemosensitivity assay, SUIT 2.28 cells; conditions: read-out: IC50 SUIT 2.28
Procedure: as §1, §2
The percentage of proliferation and their respective standard deviations were used to perform statistical analysis in GraphPad Prism software v 10 (GraphPad Software, San Diego, CA). Data were normalized to the day 0 control and to their own untreated 72 h control. These were transformed into logarithmic data, and log(inhibitor) versus response analysis was performed for obtaining the IC50 values per cell lines. Each experiment was conducted in triplicates.

Compound: Nc1ncnc2cc(-c3c[nH]c4ccc(Br)cc34)nn12 [Compound 1b, 7‐(5‐Bromo‐1H‐indol‐3‐yl)pyrazolo[1,5‐a][1,3,5]triazin‐4‐amine]
- IC50 ([1]; SRB, gemcitabine resistant PATU‐T GR, average ± SEM, triplicate; read-out: IC50 PATU‐GR): 1920 nM and 1900 nM
- inhibition of cell migration ([2]; SUIT 2.28, 1 × IC50 and 4 × IC50): strong inhibitory effects
- apoptotic index ([3]; SUIT 2.28, 24 h): below 1.5
- apoptotic index ([3]; SUIT 2.28, 72 h): higher apoptotic index
- IC50 ([4]; SRB, 72 h of treatment, average ± SEM, triplicate): 600 ± 100 nM

Compound: Cn1cc(-c2cc3ncnc(N)n3n2)c2cc(Br)ccc21 [Compound 1g, 7‐(5‐Bromo‐1‐methyl‐1H‐indol‐3‐yl)pyrazolo[1,5‐a][1,3,5]triazin‐4‐amine]
- IC50 ([1]; read-out: IC50 PATU‐GR, SRB, gemcitabine resistant PATU‐T GR, average ± SEM, triplicate): 2700 nM
- IC50 ([1]; read-out: IC50 PATU‐GR; SRB, gemcitabine resistant PATU‐T GR, average ± SEM, triplicate): 2700 ± 500 nM
- inhibition of cell migration ([2]; SUIT 2.28, 1 × IC50): greatest inhibition
- apoptotic index ([3]; SUIT 2.28, 24 h): below 1.5
- apoptotic index ([3]; SUIT 2.28, 72 h): higher apoptotic index
- IC50 ([4]; 72 h): 200 ± 100 nM

Reference: article PMC12503906, “Novel Pyrazolo [1,5‐a]−1,3,5‐Triazine Derivatives as CDK7 Inhibitors: Synthesis and Biological Insights in Pancreatic Ductal Adenocarcinoma Models” (Chemmedchem, 2025)
